Source: patent US4393225A, “AI-77 Compounds and pharmaceutically acceptable salts thereof” (Asahi Kasei Kogyo Kabushiki Kaisha, priority 1979, dated 1983)
Where two headings read alike, the source gives them in different places.

Tested on: ulcer
Experiment: Anti-ulcer test (restraint and water immersion ulcer in rats, i.p.)
Assay type: in vivo, Male Wistar rats
Conditions: for inhibition in vivo at 50 mg/kg / inhibition in vivo at 25 mg/kg: Rattus norvegicus, ip, read-out: % Inhibition of Ulcer
Method in brief: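 Male Wistar rats (~150 g), fasted 24 h, dosed i.p. with compound in physiological saline; 1 h later restrained and immersed to xiphisternum in 21 °C water for 6 h. Stomachs examined microscopically, ulcers scored 0–3, and percent inhibition calculated.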

| Structure (SMILES) | inhibition in vivo at 50 mg/kg (50 mg/kg i.p.) | further results |
| --- | --- | --- |
| CCOc1cccc2c1C(=O)OC(C(CC(C)C)NC(=O)C(O)C1OC(=O)CC1NC(=O)C=C(C)C)C2 (centres unmarked) [IIIa-5-78] | 44% | – |
| CCOc1cccc2c1C(=O)OC(C(CC(C)C)NC(=O)C(OC(=O)CC)C1OC(=O)CC1N)C2 (centres unmarked) [IIIa-14-9] | 56% | – |
| CCOc1cccc2c1C(=O)OC(C(CC(C)C)NC(=N)C(OC(=O)C(C)C)C(O)C(N)CC(=O)O)C2 (centres unmarked) [Vb-6-2] | 66% | – |
| CCOc1cccc2c1C(=O)OC(C(CC(C)C)NC(=O)C(O)C1OC(=O)CC1NC(=O)c1ccc(CCC(C)C)cc1)C2 (centres unmarked) [IIIa-5-38] | 33% | – |
| CC(C)CC(NC(=O)C(O)C1OC(=O)CC1NC(=O)c1cccs1)C1Cc2cccc(O)c2C(=O)O1 (centres unmarked) [IIIa-1-25] | 66% | – |
| CC(=O)Oc1cccc2c1C(=O)OC(C(CC(C)C)NC(=O)C(O)C1OC(=O)CC1NC(=O)C(C)C)C2 (centres unmarked) [IIIa-4-2] | 44% | – |
| CCCCNC(CC(N)=O)C(O)C(OC(=O)CCC)C(=O)NC(CC(C)C)C1Cc2cccc(O)c2C(=O)O1 (centres unmarked) [VII-11-3] | – | inhibition in vivo at 25 mg/kg: 66% |
| CC(C)CC(NC(=O)C(O)C1OC(=O)CC1NC(=O)CCC1CCCC1)C1Cc2cccc(O)c2C(=O)O1 (centres unmarked) [IIIa-1-63] | 66% | – |
| CC(C)CC(NC(=O)C(O)C1OC(=O)CC1NC(=O)C1CC2C=CC1C2)C1Cc2cccc(O)c2C(=O)O1 (centres unmarked) [IIIa-1-71] | – | inhibition in vivo at 50 mg/kg: 66% |
| CCOc1cccc2c1C(=O)OC(C(CC(C)C)NC(=O)C(OC)C1OC(=O)CC1NC(C)=O)C2 (centres unmarked) [IIIa-7-1] | 33% | – |
| CNC(CC(N)=O)C(O)C(OC)C(=O)NC(CC(C)C)C1Cc2cccc(OC(C)=O)c2C(=O)O1 (centres unmarked) [VII-27-1] | – | inhibition in vivo at 25 mg/kg (25 mg/kg i.p.): 66% |
| CCOc1cccc2c1C(=O)OC(C(CC(C)C)NC(=O)C(O)C1OC(=O)CC1NC(=O)c1cn(C(C)=O)c3ccccc13)C2 (centres unmarked) [IIIa-5-34] | 33% | – |
| CCOc1cccc2c1C(=O)OC(C(CC(C)C)NC(=O)C(O)C1OC(=O)CC1NC(=O)C1CCC(OC)CC1)C2 (centres unmarked) [IIIa-5-71] | 33% | – |
| CCCCNC1CC(=O)OC1C(OC(=O)CCC)C(=O)NC(CC(C)C)C1Cc2cccc(O)c2C(=O)O1 (centres unmarked) [IIIa-19-10] | 66% | – |
| CC(C)CC(NC(=O)C(O)C(O)C(N)CC(=O)O)C1Cc2cccc(O)c2C(=O)O1 (centres unmarked) [AI-77-B] | – | anti-ulcer activity (in words) (rat, in vivo): high anti-ulcer activity |
| CCCCOc1cccc2c1C(=O)OC(C(CC(C)C)NC(=O)C(O)C(O)C(CC(=O)NC)NCC)C2 (centres unmarked) [VII-14-1] | – | inhibition in vivo at 25 mg/kg (25 mg/kg i.p.): 72% |
| CC(C)CC(NC(=O)C(O)C(O)C(N)CC(=O)NCC1CCCCC1)C1Cc2cccc(O)c2C(=O)O1 (centres unmarked) [VII-1-12] | – | inhibition in vivo at 25 mg/kg (25 mg/kg i.p.): 94% |
| CCCC(=O)NC1CC(=O)OC1C(OC(C)C)C(=O)NC(CC(C)C)C1Cc2cccc(OCc3ccccc3)c2C(=O)O1 (centres unmarked) [IIIa-7-11] | 33% | – |
| CC(C)CC(NC(=O)C(O)C1OC(=O)CC1NC(=O)C1CCCO1)C1Cc2cccc(O)c2C(=O)O1 (centres unmarked) [IIIa-1-23] | 66% | – |
| CC(C)CC(NC(=O)C(O)C(O)C=CC(=O)NCC1CCCCC1)C1Cc2cccc(O)c2C(=O)O1 (centres unmarked) [VIII-1-5] | 44% | – |

| Structure (SMILES) | inhibition in vivo at 50 mg/kg (50 mg/kg i.p.) | further results |
| --- | --- | --- |
| COC(C)(C)CC(=O)NC1CC(=O)OC1C(O)C(=O)NC(CC(C)C)C1Cc2cccc(O)c2C(=O)O1 (centres unmarked) [IIIa-1-83] | 66% | – |
| CCOc1cccc2c1C(=O)OC(C(CC(C)C)NC(=O)C(O)C1OC(=O)CC1N)C2 (centres unmarked) [IIIa-13-2] | 94% | – |
| CCCCCCCCC=CCCCCCCCCNC(=O)CC(N)C(O)C(O)C(=O)NC(CC(C)C)C1Cc2cccc(O)c2C(=O)O1 (centres unmarked) [VII-1-8] | – | inhibition in vivo at 25 mg/kg (25 mg/kg i.p.): 89% |
| CC(C)CC(NC(=O)C(O)C(O)C(N)CC(N)=O)C1Cc2cccc(O)c2C(=O)O1 (centres unmarked) [VII-1-1] | – | inhibition in vivo at 25 mg/kg: 100% |
| CC(=O)n1cc(C(=O)NC2CC(=O)OC2C(O)C(=O)NC(CC(C)C)C2Cc3cccc(O)c3C(=O)O2)c2ccccc21 (centres unmarked) [IIIa-1-17] | 66% | – |
| CC(C)CC(NC(=O)C(O)C(O)C(N)CC(N)=O)C1Cc2cccc(OC(=O)C(C)C)c2C(=O)O1 (centres unmarked) [VII-4-2] | – | inhibition in vivo at 25 mg/kg (25 mg/kg i.p.): 89% |
| CC(C)CC(NC(=O)C(O)C1OC(=O)CC1NC(=O)c1ccc(C(C)C)cc1)C1Cc2cccc(O)c2C(=O)O1 (centres unmarked) [IIIa-1-69] | 66% | – |
| C#CC(=O)NC1CC(=O)OC1C(O)C(=O)NC(CC(C)C)C1Cc2cccc(O)c2C(=O)O1 (centres unmarked) [IIIa-1-52] | 66% | – |
| CCCC=Cc1ccc(C(=O)NC2CC(=O)OC2C(O)C(=O)NC(CC(C)C)C2Cc3cccc(O)c3C(=O)O2)cc1 (centres unmarked) [IIIa-1-77] | 66% | – |
| CCCC(=O)Oc1cccc2c1C(=O)OC(C(CC(C)C)NC(=N)C(OCC)C(O)C(N)CC(=O)O)C2 (centres unmarked) [Vb-9-2] | 66% | – |
| CCOC(C(=N)NC(CC(C)C)C1Cc2cccc(OCCC(C)OC)c2C(=O)O1)C(O)C(N)CC(=O)O (centres unmarked) [Vb-9-3] | 66% | – |
| CCCCOc1cccc2c1C(=O)OC(C(CC(C)C)NC(=O)C(O)C1OC(=O)CC1NC(C)=O)C2 (centres unmarked) [IIIa-5-3] | 44% | – |
| C#CC(=O)NC1CC(=O)OC1C(O)C(=O)NC(CC(C)C)C1Cc2cccc(OCC)c2C(=O)O1 (centres unmarked) [IIIa-5-51] | 44% | – |
| CCOc1cccc2c1C(=O)OC(C(CC(C)C)NC(=O)C(O)C1OC(=O)CC1NCC=C(C)C)C2 (centres unmarked) [IIIa-22-72] | 94% | – |
| CCCCCCCCCCCCCCCCCC(=O)NC1CC(=O)OC1C(OC(C)=O)C(=O)NC(CC(C)C)C1Cc2cccc(OC(C)=O)c2C(=O)O1 (centres unmarked) [IIIa-3-4] | 22% | – |
| CCOc1cccc2c1C(=O)OC(C(CC(C)C)NC(=O)C(O)C1OC(=O)CC1NC(=O)CC1CC1)C2 (centres unmarked) [IIIa-5-76] | 33% | – |
| COC(=O)C1CCC(C(=O)NC2CC(=O)OC2C(O)C(=O)NC(CC(C)C)C2Cc3cccc(O)c3C(=O)O2)CC1 (centres unmarked) [IIIa-1-68] | 66% | – |
| CCCCCOC(C)CCNC(=O)CC(N)C(O)C(O)C(=O)NC(CC(C)C)C1Cc2cccc(O)c2C(=O)O1 (centres unmarked) [VII-1-27] | – | inhibition in vivo at 25 mg/kg: 89% |
| CCCCCNC(=O)C=CC(O)C(O)C(=O)NC(CC(C)C)C1Cc2cccc(O)c2C(=O)O1 (centres unmarked) [VIII-1-2] | 56% | – |
| CCNC(=O)CC(NC(C)=O)C(O)C(OC)C(=O)NC(CC(C)C)C1Cc2cccc(O)c2C(=O)O1 (centres unmarked) [VII-35-1] | – | inhibition in vivo at 25 mg/kg (25 mg/kg i.p.): 66% |

| Structure (SMILES) | inhibition in vivo at 50 mg/kg (50 mg/kg i.p.) | further results |
| --- | --- | --- |
| CCOc1cccc2c1C(=O)OC(C(CC(C)C)NC(=O)C(O)C1OC(=O)CC1NC(=O)Cn1cnnn1)C2 (centres unmarked) [IIIa-5-72] | 44% | – |
| CCCCCCCCCCCC(=O)NC1CC(=O)OC1C(O)C(=O)NC(CC(C)C)C1Cc2cccc(O)c2C(=O)O1 (centres unmarked) [IIIa-1-10] | 66% | – |
| CCCCCCCCCCCCCCCCCC(=O)NC1CC(=O)OC1C(O)C(=O)NC(CC(C)C)C1Cc2cccc(O)c2C(=O)O1 (centres unmarked) [IIIa-1-11] | 44% | – |
| CCCCCC(=O)OC(C)CC(=O)NC1CC(=O)OC1C(O)C(=O)NC(CC(C)C)C1Cc2cccc(OCC)c2C(=O)O1 (centres unmarked) [IIIa-5-48] | 33% | – |
| CC(=O)NC1CC(=O)OC1C(OC(C)=O)C(=O)NC(CC(C)C)C1Cc2cccc(O)c2C(=O)O1 (centres unmarked) [IIIa-2-2] | 44% | – |
| CCCCOC(C(=O)NC(CC(C)C)C1Cc2cccc(OC)c2C(=O)O1)C(O)C(CC(N)=O)NC (centres unmarked) [VII-25-1] | – | inhibition in vivo at 25 mg/kg (25 mg/kg i.p.): 66% |
| CCC(=O)OC(C(=O)NC(CC(C)C)C1Cc2cccc(O)c2C(=O)O1)C(O)C(CC(=O)NC)NC(C)=O (centres unmarked) [VII-29-1] | – | inhibition in vivo at 25 mg/kg: 66% |
| CCOc1cccc2c1C(=O)OC(C(CC(C)C)NC(=O)C(O)C1OC(=O)CC1NC(=O)c1cnc3ccc(OC)cc3c1)C2 (centres unmarked) [IIIa-5-30] | 33% | – |
| CC(C)CCc1ccc(C(C)C(=O)NC2CC(=O)OC2C(O)C(=O)NC(CC(C)C)C2Cc3cccc(O)c3C(=O)O2)cc1 (centres unmarked) [IIIa-1-53] | 56% | – |
| COC(C(=O)NC(CC(C)C)C1Cc2cccc(O)c2C(=O)O1)C1OC(=O)CC1NCC(Cl)(Cl)Cl (centres unmarked) [IIIa-25-10] | 66% | – |
| CCCCCCCCC=CCCCCCCCC(=O)NC1CC(=O)OC1C(OC(C)=O)C(=O)NC(CC(C)C)C1Cc2cccc(OCC)c2C(=O)O1 (centres unmarked) [IIIa-6-5] | 22% | – |
| CCCCCCCCCCCCCCCCCC(=O)OC(C(=O)NC(CC(C)C)C1Cc2cccc(OCC)c2C(=O)O1)C1OC(=O)CC1N (centres unmarked) [IIIa-14-3] | 44% | – |
| CC(C)CC(NC(=O)C(O)C1OC(=O)CC1NC(=O)CCCc1cccs1)C1Cc2cccc(O)c2C(=O)O1 (centres unmarked) [IIIa-1-26] | 66% | – |
| CNC(CC(N)=O)C(O)C(O)C(=O)NC(CC(C)C)C1Cc2cccc(OC)c2C(=O)O1 (centres unmarked) [VII-23-5] | – | inhibition in vivo at 25 mg/kg (25 mg/kg i.p.): 89% |
| CC(C)CC(NC(=O)C(O)C1OC(=O)CC1NC(=O)Cc1ccc2ccccc2c1)C1Cc2cccc(O)c2C(=O)O1 (centres unmarked) [IIIa-1-64] | 56% | – |
| CCOc1cccc2c1C(=O)OC(C(CC(C)C)NC(=O)C(O)C1OC(=O)CC1NCCCCCO)C2 (centres unmarked) [IIIa-22-53] | 78% | – |
| CCCCCc1ccc(C(=O)NC2CC(=O)OC2C(O)C(=O)NC(CC(C)C)C2Cc3cccc(O)c3C(=O)O2)cc1 (centres unmarked) [IIIa-1-76] | 66% | – |
| CC(C)CC(NC(=O)C(O)C1OC(=O)CC1NC(=O)C1CCC=CO1)C1Cc2cccc(O)c2C(=O)O1 (centres unmarked) [IIIa-1-59] | 66% | – |
| CC(C)CC(NC(=O)C(O)C1OC(=O)CC1NC(=O)Cc1cccnc1)C1Cc2cccc(O)c2C(=O)O1 (centres unmarked) [IIIa-1-58] | 66% | – |
